Assays:
Type in all cases: cell-based, human
BT474 cells = test: SLC6A14 and ER mRNA by RT-PCR after estradiol/antiestrogen treatment; details: 24 h
Procedure: (§1) FIGS. 2A-2C. Regulation of SLC6A14 expression by estrogen/ER. In FIG. 2A, ZR75.1 and BT474 cells were cultured for 5-6 passages in control medium (10% fetal bovine serum with phenol red) and phenol red-free medium (10% or 5% charcoal-stripped fetal bovine serum), and then the levels of ERa mRNA and SLC6A14 mRNA were determined by RT-PCR (P1, P2, P3, P4, P5, and P6 refer to passage numbers). In FIG. 2B, BT474 cells were treated with estradiol (10 nM) in the presence or absence of antiestrogens (1 μM) for 24 h, and then used for RT-PCR analysis of SLC6A14 mRNA and ERa mRNA (E2, estradiol; TAM, tamoxifen; 4-OH TAM, 4-hydroxytamoxifen; ICI 182780, FULVESTRANT™). […] Following the treatment, the reporter activity was measured. […]
(§2) Analysis of SLC6A14 as an estrogen/ER target. The influence of estrogen on SLC6A14 expression was assessed in ER-positive breast cancer cells (ZR75.1 and BT474) by culturing them for several passages in the absence of phenol red, and then monitoring the levels of SLC6A14 mRNA. […] Luciferase activity was measured in cell lysates using Luciferase Assay Reagent (Promega). β-galactosidase activity in the same cell lysates was used for normalization of the promoter activity for differences in transfection efficiency.

MCF7 cells = test: SLC6A14 mRNA by RT-PCR in phenol red-free medium with or without estradiol; details: estradiol 10 nM, 24 h, versus absence of estradiol
Procedure: FIG. 11. Estrogen-dependent suppression of the efficacy of α-MT to induce ASNS and CHOP expression in MCF7 cells. MCF7 cells were cultured in a phenol red-free medium in the absence or presence of estradiol (E2, 10 nM) for 24 h and then treated without or with α-MT (2.5 mM, 24 h). The cells were then used for analysis of SLC6A14, asparagine synthetase (ASNS), and CHOP mRNA levels by RT-PCR. Hypoxanthine/guanine phosphoribosyltransferase-1 (HPRT1) mRNA levels were used as an internal control.
RT-PCR. Total RNA was isolated using TRIZOL™ (Invitrogen). 2 μg of RNA was reverse transcribed using the GeneAmp PCR System (Applied Biosystems, Branchburg, N.J.). PCR reaction was performed under optimal conditions specific for each of the primer pairs. GAPDH (glyceraldehyde-3-phosphate dehydrogenase) or HPRT1 (hypoxanthine/guanine phosphoribosyl transferase-1) were used as internal controls. PCR products were size-fractionated on agarose gel, stained with ethidium bromide and imaged using Alpha Imager (Santa Clara, Calif.). Densitometry was performed on PCR bands and normalized to the internal control. Normalized values were used to compare mRNA levels of target genes. Primers used for PCR were as follows.

[1] = tested on: SLC6A14 promoter in BT474 cells; test: SLC6A14-promoter luciferase reporter assay; details: BT474, estradiol 10 nM, normalized with β-galactosidase activity
Procedure: as §1, §2

## C[C@]12CC[C@@H]3c4ccc(O)cc4CC[C@H]3[C@@H]1CC[C@@H]2O [estradiol]
BT474 cells; BT474, estradiol 10 nM
  SLC6A14 mRNA levels: increased
BT474 cells; BT474, estradiol
  expression of ER: did not have any noticeable effect
MCF7 cells
  expression of SLC6A14: higher
[1]
  enhancement of SLC6A14-promoter (luciferase) activity: 6 fold
